Consider 7 molecules from ChEMBL document CHEMBL4017521, “Direct NMR Probing of Hydration Shells of Protein Ligand Interfaces and Its Application to Drug Design” (J Med Chem, 2017).

The structures appear in SMILES notation. Calls of active or inactive are those of the source. No cut-off for these calls is given here.

The target of this assay is Bromodomain-containing protein 4 (Homo sapiens, UniProt O60885). Briefly: Inhibition of recombinant human N-terminal His6-tagged Brd4-BD1 expressed in Escherichia coli BL21(DE3) by LOGSY NMR titration method.
With `Cc1nnc2c(N)cc(-c3cnn(C)c3Oc3ccccc3)nn12`, the inhibition entry is “Active”.

As usually defined, the IC50 is the point on the concentration scale where inhibition reaches its midpoint. For `Cc1nnc2ccc(-c3cnn(C)c3Oc3ccccc3)nn12`, the IC50 turned out to be 2 µM.

In the case of `COc1ccc(-c2ccc3nnc(C)n3n2)cc1OC`, the IC50 was 24 µM.

Regarding `Cc1nnc2ccc(-c3ccccc3)nn12`, the inhibition result is “Active”.

For `CNc1cc(-c2ccccc2)nn2c(C)nnc12`, the inhibition result was “Active”.

On to `Cc1nnc2ccc(N(C)Cc3ccc(F)c(F)c3)nn12`, for which the inhibition result is “Active”.

As to `CNc1cc(N(C)Cc2ccccc2)nn2c(C)nnc12`, the inhibition entry is “Active”.
